In patent US20230102554A1 (GB002, INC., priority 2019, published 2023):

What was measured:
[1] = target: T1, Human PDGFRα, cytoplasmic domain (GST-PDGFRα) (Homo sapiens, UniProt P16234); experiment: Human PDGFRα biochemical inhibition assay (off-chip Mobility Shift Assay)
T1 construct: made in house

[2] = target: T2, Human PDGFRβ, cytoplasmic domain (GST-PDGFRβ) (Homo sapiens, UniProt P09619); experiment: Human PDGFRβ biochemical inhibition assay (off-chip Mobility Shift Assay)
T2 construct: made in house
T2 sequence (P09619 with tags, fused parts or gaps): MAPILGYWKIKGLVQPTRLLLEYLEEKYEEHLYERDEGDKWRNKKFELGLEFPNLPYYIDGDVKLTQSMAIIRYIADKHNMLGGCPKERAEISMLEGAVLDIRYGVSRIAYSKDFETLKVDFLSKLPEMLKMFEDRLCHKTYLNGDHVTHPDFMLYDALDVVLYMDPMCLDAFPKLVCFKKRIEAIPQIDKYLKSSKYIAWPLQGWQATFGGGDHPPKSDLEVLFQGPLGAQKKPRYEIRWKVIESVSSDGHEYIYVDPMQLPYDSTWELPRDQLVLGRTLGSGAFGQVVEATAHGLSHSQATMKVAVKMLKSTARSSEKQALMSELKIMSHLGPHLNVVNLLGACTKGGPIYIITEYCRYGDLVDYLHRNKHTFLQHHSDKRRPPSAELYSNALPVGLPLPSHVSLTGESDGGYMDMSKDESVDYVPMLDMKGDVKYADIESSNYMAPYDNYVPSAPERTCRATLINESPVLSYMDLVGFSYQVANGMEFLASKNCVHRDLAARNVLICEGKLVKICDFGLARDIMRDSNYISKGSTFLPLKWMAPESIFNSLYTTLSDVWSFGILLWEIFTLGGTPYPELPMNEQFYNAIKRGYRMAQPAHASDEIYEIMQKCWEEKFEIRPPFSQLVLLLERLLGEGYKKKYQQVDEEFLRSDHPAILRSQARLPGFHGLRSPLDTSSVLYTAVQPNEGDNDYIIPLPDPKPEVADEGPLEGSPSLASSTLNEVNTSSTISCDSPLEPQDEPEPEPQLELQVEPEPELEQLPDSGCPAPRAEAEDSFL
Protocol: Human PDGFRβ Biochemical Inhibition Assay
The compounds described herein were tested for the ability to inhibit activity of PDGFRβ which was achieved via use of an off-chip Mobility Shift Assay (MSA). Human PDGFRβ, cytoplasmic domain [557-1106 (end) amino acids of accession number NP_002600.1 (SEQ ID NO: 3)] was expressed as N-terminal GST-fusion protein (88 kDa) using baculovirus expression system (SEQ ID NO: 4). GST-PDGFRβ was purified by using glutathione sepharose chromatography. Test compounds were dissolved in and diluted with dimethylsulfoxide (DMSO) to achieve 1 mM concentration. Then the solution was further diluted 25-fold with assay buffer to make the final test compound solution. The reference compound, Staurosporine, used as the assay positive control was prepared similarly. The 4× compound solution/substrate (CSKtide, 1000 nM)/ATP (Km ATP)/Mg Metal (5 mM) was prepared with kit buffer (20 mM HEPES, 0.01% Triton X-100, 5 mM DTT, pH 7.5), and 2× kinase solution was prepared with assay buffer (20 mM HEPES, 0.01% Triton X-100, 1 mM DTT, pH 7.5). The 5 μL of 4× compound solution, […] of 4× Substrate/ATP/Metal solution, and […] of 2× kinase solution were mixed and incubated in a well of polypropylene 384 well microplate for 1 hour at room temperature. […] of Termination Buffer (QuickScout Screening Assist MSA; Carna Biosciences) was added to the well. The reaction mixture was applied to LabChip™ system (Perkin Elmer), and the product and substrate peptide peaks were separated and quantitated. The kinase reaction was evaluated by the product ratio calculated from peak heights of product(P) and substrate(S) peptides (P/(P+S)). The readout value of reaction control (complete reaction mixture) was set as a 0% inhibition, and the readout value of background (Enzyme(−)) was set as a 100% inhibition, then the percent inhibition of each test solution was calculated.
With respect to PDGFRβ activity: “+++” denotes an IC50 of less than 300 nM; “++” denotes an IC50 of from 300 nM to less than 1000 nM; and “+” denotes an IC50 of 1000 nM or more.

T1 sequence (P16234 550-1089 T674I): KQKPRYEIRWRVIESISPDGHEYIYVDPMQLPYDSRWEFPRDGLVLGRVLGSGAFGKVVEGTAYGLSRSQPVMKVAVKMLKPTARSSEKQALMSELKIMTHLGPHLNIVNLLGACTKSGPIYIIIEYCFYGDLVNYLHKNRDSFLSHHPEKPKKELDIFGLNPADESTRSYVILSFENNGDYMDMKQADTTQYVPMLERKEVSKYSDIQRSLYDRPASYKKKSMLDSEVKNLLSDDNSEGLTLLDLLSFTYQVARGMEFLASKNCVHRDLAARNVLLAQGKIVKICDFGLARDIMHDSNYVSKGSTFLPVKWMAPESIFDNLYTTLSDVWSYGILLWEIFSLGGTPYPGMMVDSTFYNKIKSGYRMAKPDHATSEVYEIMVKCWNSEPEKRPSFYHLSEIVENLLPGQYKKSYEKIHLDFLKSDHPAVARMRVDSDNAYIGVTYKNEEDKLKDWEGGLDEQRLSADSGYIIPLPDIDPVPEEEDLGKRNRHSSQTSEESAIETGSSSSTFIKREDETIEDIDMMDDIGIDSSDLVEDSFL

| IC50 [1] [nM] | IC50 [2] [nM] | SMILES |
| --- | --- | --- |
| < 300 | < 300 | CCn1cc2ncc(N[C@@H](C)c3cccc(NC(=O)c4ccc(CN5CCN(C)CC5)c(C)c4)c3)nc2n1 [Compound 402, (S)-N-(3-(1-((2-ethyl-2H-pyrazolo[3,4-b]pyrazin-6-yl)amino)ethyl)phenyl)-3-methyl-4-((4-methylpiperazin-1-yl)methyl)benzamide] |
| < 300 | < 300 | Cc1cncc(C(=O)Nc2cccc([C@H](C)Nc3cnc4cnn(CC5CC5)c4n3)c2)c1 [Compound 181, (S)-N-(3-(1-((1-(cyclopropylmethyl)-1H-pyrazolo[3,4-b]pyrazin-6-yl)amino)ethyl)phenyl)-5-methylnicotinamide] |
| < 300 | 300 to 1000 | CCn1cc2ncc(N[C@@H](C)c3cccc(NC(=O)c4cnc(NC)c(C)c4)c3)nc2n1 [Compound 380, (S)-N-(3-(1-((2-ethyl-2H-pyrazolo[3,4-b]pyrazin-6-yl)amino)ethyl)phenyl)-5-methyl-6-(methylamino)nicotinamide] |
| < 300 | ≥ 1000 | CCn1cc2ncc(N[C@@H](C)c3cccc(NC(=O)Cc4ccc(C5CCC5)cn4)c3)nc2n1 [Compound 711, (S)-2-(5-cyclobutylpyridin-2-yl)-N-(3-(1-((2-ethyl-2H-pyrazolo[3,4-b]pyrazin-6-yl)amino)ethyl)phenyl)acetamide] |
| < 300 | ≥ 1000 | CCn1cc2ncc(N[C@@H](C)c3cc(NC(=O)Cc4cnc(C5CC5)c(F)c4)ccc3F)nc2n1 [Compound 691, (S)-2-(6-cyclopropyl-5-fluoropyridin-3-yl)-N-(3-(1-((2-ethyl-2H-pyrazolo[3,4-b]pyrazin-6-yl)amino)ethyl)-4-fluorophenyl)acetamide] |
| < 300 | 300 to 1000 | CCc1ccc(CC(=O)Nc2ccc(C)c([C@H](C)Nc3cnc4cn(CC)nc4n3)c2)nc1 [Compound 713, (S)-N-(3-(1-((2-ethyl-2H-pyrazolo[3,4-b]pyrazin-6-yl)amino)ethyl)-4-methylphenyl)-2-(5-ethylpyridin-2-yl) acetamide] |
| < 300 | < 300 | Cc1cncc(C(=O)Nc2cccc([C@H](C)Nc3cnc4cc(C)sc4n3)c2)c1 [Compound 19, (S)-5-methyl-N-(3-(1-((6-methylthieno[2,3-b]pyrazin-3-yl)amino)ethyl)phenyl)nicotinamide] |
| < 300 | ≥ 1000 | Cc1cncc(C(=O)Nc2cccc([C@H](C)Nc3cnc4cccnc4c3)c2)c1 [Compound 3, (S)—N-(3-(1-((1,5-naphthyridin-3-yl)amino)ethyl)phenyl)-5-methylnicotinamide] |
| < 300 | 300 to 1000 | CCn1cc2ncc(N[C@@H](C)c3cccc(NC(=O)c4ccc5c(c4)CCNC5)c3)nc2n1 [Compound 66, (S)-N-(3-(1-((2-ethyl-2H-pyrazolo[3,4-b]pyrazin-6-yl)amino)ethyl)phenyl)-1,2,3,4-tetrahydroisoquinoline-6-carboxamide] |
| < 300 | < 300 | CCn1cc2ncc(N[C@@H](C)c3cc(NC(=O)Cc4ccc(Cl)cn4)ccc3C)nc2n1 [Compound 657, (S)-2-(5-chloropyridin-2-yl)-N-(3-(1-((2-ethyl-2H-pyrazolo[3,4-b]pyrazin-6-yl)amino)ethyl)-4-methylphenyl)acetamide] |
| ≥ 1000 | ≥ 1000 | CCn1cc2ncc(N[C@@H](C)c3cccc(NC(=O)c4cnc(CO)s4)c3)nc2n1 [Compound 363, (S)-N-(3-(1-((2-ethyl-2H-pyrazolo[3,4-b]pyrazin-6-yl)amino)ethyl)phenyl)-2-(hydroxymethyl)thiazole-5-carboxamide] |
| < 300 | < 300 | CCn1cc2ncc(N[C@@H](C)c3cccc(NC(=O)Nc4cnc(N(C)C)c(C)c4)c3)nc2n1 [Compound 742, (S)-1-(6-(dimethylamino)-5-methylpyridin-3-yl)-3-(3-(1-((2-ethyl-2H-pyrazolo[3,4-b]pyrazin-6-yl)amino)ethyl)phenyl)urea] |
| < 300 | < 300 | Cc1cc(C(=O)Nc2cccc([C@H](C)Nc3cnc4cnn(C)c4n3)c2)cnc1CN1CCOCC1 [Compound 239, (S)-5-methyl-N-(3-(1-((1-methyl-1H-pyrazolo[3,4-b]pyrazin-6-yl)amino)ethyl)phenyl)-6-(morpholinomethyl) nicotinamide] |
| < 300 | ≥ 1000 | Cc1cnn(C(=O)Nc2cccc([C@H](C)Nc3cnc4cnn(C)c4n3)c2)c1 [Compound 168, (S)-4-methyl-N-(3-(1-((1-methyl-1H-pyrazolo[3,4-b]pyrazin-6-yl)amino)ethyl)phenyl)-1H-pyrazole-1-carboxamide] |
| < 300 | < 300 | CC(C)c1cc(C(=O)Nc2cccc([C@H](C)Nc3cnc4[nH]ncc4n3)c2)no1 [Compound 530, (S)-N-(3-(1-((1H-pyrazolo[3,4-b]pyrazin-5-yl)amino)ethyl)phenyl)-5-isopropylisoxazole-3-carboxamide] |
| < 300 | 300 to 1000 | C#Cc1cncc(C(=O)Nc2cccc([C@H](C)Nc3cnc4cnn(C)c4n3)c2)c1 [Compound 113, (S)-5-ethynyl-N-(3-(1-((1-methyl-1H-pyrazolo[3,4-b]pyrazin-6-yl)amino)ethyl)phenyl)nicotinamide] |
| < 300 | 300 to 1000 | CCn1cc2ncc(N[C@@H](C)c3cccc(NC(=O)c4cnn(C5CC5)c4)c3)nc2n1 [Compound 299, (S)-1-cyclopropyl-N-(3-(1-((2-ethyl-2H-pyrazolo[3,4-b]pyrazin-6-yl)amino)ethyl)phenyl)-1H-pyrazole-4-carboxamide] |
| < 300 | < 300 | CCn1cc2ncc(N[C@@H](C)c3cc(NC(=O)Cc4ccccc4)ccc3F)nc2n1 [Compound 637, (S)-N-(3-(1-((2-ethyl-2H-pyrazolo[3,4-b]pyrazin-6-yl)amino)ethyl)-4-fluorophenyl)-2-phenylacetamide] |
| < 300 | < 300 | CCn1cc2ncc(N[C@@H](C)c3cc(NC(=O)c4cnc(C)c(C)c4)ccc3C)nc2n1 [Compound 509, (S)-N-(3-(1-((2-ethyl-2H-pyrazolo[3,4-b]pyrazin-6-yl)amino)ethyl)-4-methylphenyl)-5,6-dimethylnicotinamide] |
| < 300 | < 300 | CCn1cc2ncc(N[C@@H](C)c3cccc(NC(=O)c4ccc(NC(C)C)c(C)c4)c3)nc2n1 [Compound 405, (S)-N-(3-(1-((2-ethyl-2H-pyrazolo[3,4-b]pyrazin-6-yl)amino)ethyl)phenyl)-4-(isopropylamino)-3-methylbenzamide] |
| < 300 | < 300 | Cc1cncc(C(=O)Nc2cccc([C@H](C)Nc3cnc4ccoc4n3)c2)c1 [Compound 605, (S)-N-(3-(1-(furo[2,3-b]pyrazin-3-ylamino)ethyl)phenyl)-5-methylnicotinamide] |
| < 300 | < 300 | Cc1cc(C(=O)Nc2cccc([C@H](C)Nc3cnc4cnn(C)c4n3)c2)cnc1C(C)C [Compound 231, (S)-6-isopropyl-5-methyl-N-(3-(1-((1-methyl-1H-pyrazolo[3,4-6]pyrazin-6-yl)amino)ethyl)phenyl)nicotinamide] |
| < 300 | < 300 | CSc1ccc(C(=O)Nc2cccc([C@H](C)Nc3cnc4cnn(C)c4n3)c2)cc1SC [Compound 269, (S)-N-(3-(1-((1-methyl-1H-pyrazolo[3,4-b]pyrazin-6-yl)amino)ethyl)phenyl)-3,4-bis(methylthio)benzamide] |
